According to PubChem BioAssay (NCI):
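Method: 48-hour compound exposure of cells in 96-well plates, five concentrations, linear interpolation of endpoints. Here, GI50 denotes the concentration required for 50% inhibition of growth. TGI is the concentration that stops growth completely.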

Tests used:
Assay in all cases: NCI tumour cell line growth inhibition, 48 h
HT29 colon = system: HT29 colon
OVCAR-3 ovarian = system: OVCAR-3 ovarian
TK-10 renal = system: TK-10 renal
SN12C renal = system: SN12C renal
UACC-62 melanoma = system: UACC-62 melanoma
SNB-75 CNS = system: SNB-75 CNS
SK-MEL-28 melanoma = system: SK-MEL-28 melanoma
MALME-3M melanoma = system: MALME-3M melanoma
MCF7 breast = system: MCF7 breast
HS 578T breast = system: HS 578T breast
DU-145 prostate = system: DU-145 prostate
PC-3 prostate = system: PC-3 prostate
T-47D breast = system: T-47D breast
OVCAR-4 ovarian = system: OVCAR-4 ovarian
NCI-H23 lung = system: NCI-H23 lung
BT-549 breast = system: BT-549 breast
LOX IMVI melanoma = system: LOX IMVI melanoma
RPMI-8226 leukemia = system: RPMI-8226 leukemia
SK-MEL-2 melanoma = system: SK-MEL-2 melanoma
SK-OV-3 ovarian = system: SK-OV-3 ovarian
OVCAR-5 ovarian = system: OVCAR-5 ovarian
SF-539 CNS = system: SF-539 CNS
MDA-MB-231 breast = system: MDA-MB-231 breast
SF-268 CNS = system: SF-268 CNS
A498 renal = system: A498 renal
MOLT-4 leukemia = system: MOLT-4 leukemia
786-0 renal = system: 786-0 renal
NCI/ADR-RES ovarian = system: NCI/ADR-RES ovarian
U251 CNS = system: U251 CNS
RXF 393 renal = system: RXF 393 renal
HOP-92 NSCLC = system: HOP-92 NSCLC
SNB-19 CNS = system: SNB-19 CNS
SR leukemia = system: SR leukemia
EKVX NSCLC = system: EKVX NSCLC
MDA-MB-468 breast = system: MDA-MB-468 breast
SW-620 colon = system: SW-620 colon
SF-295 CNS = system: SF-295 CNS
UACC-257 melanoma = system: UACC-257 melanoma
HCC-2998 colon = system: HCC-2998 colon
CAKI-1 renal = system: CAKI-1 renal
NCI-H522 lung = system: NCI-H522 lung
NCI-H460 lung = system: NCI-H460 lung
HOP-62 NSCLC = system: HOP-62 NSCLC
HCT-15 colon = system: HCT-15 colon
KM12 colon = system: KM12 colon
COLO 205 colon = system: COLO 205 colon
ACHN renal = system: ACHN renal
NCI-H226 lung = system: NCI-H226 lung
SK-MEL-5 melanoma = system: SK-MEL-5 melanoma
CCRF-CEM leukemia = system: CCRF-CEM leukemia
HL-60(TB) leukemia = system: HL-60(TB) leukemia
M14 melanoma = system: M14 melanoma
K-562 leukemia = system: K-562 leukemia
OVCAR-8 ovarian = system: OVCAR-8 ovarian
HCT-116 colon = system: HCT-116 colon
UO-31 renal = system: UO-31 renal
IGROV1 ovarian = system: IGROV1 ovarian
A549 NSCLC = system: A549 NSCLC
MDA-MB-435 = system: MDA-MB-435

For `O=C(N/N=C/c1ccoc1)c1[nH]c2ccc(Br)cc2c1-c1ccccc1`, the GI50 (HT29 colon) was 0.329 µM, the TGI (HT29 colon) was 2.92 µM and the GI50 (OVCAR-3 ovarian) was 0.257 µM. The TGI (OVCAR-3 ovarian) was 11.5 µM, the GI50 (TK-10 renal) was 7.96 µM and the TGI (TK-10 renal) was 24 µM. For the same compound, the GI50 (SN12C renal) was 0.485 µM, the TGI (SN12C renal) was 12.1 µM and the GI50 (UACC-62 melanoma) was 0.355 µM. For the same compound, the TGI (UACC-62 melanoma) was 15.8 µM, the GI50 (SNB-75 CNS) was 0.299 µM and the TGI (SNB-75 CNS) was 13.2 µM. The GI50 (SK-MEL-28 melanoma) was 2.75 µM, the TGI (SK-MEL-28 melanoma) was 19.9 µM and the GI50 (MALME-3M melanoma) was 5.25 µM. The TGI (MALME-3M melanoma) was 21.4 µM, the GI50 (MCF7 breast) was 0.21 µM and the TGI (MCF7 breast) was 12.7 µM. For the same compound, the GI50 (HS 578T breast) was 0.279 µM, the TGI (HS 578T breast) was 13 µM and the GI50 (DU-145 prostate) was 0.568 µM. The TGI (DU-145 prostate) was 12.4 µM, the GI50 (PC-3 prostate) was 0.436 µM and the TGI (PC-3 prostate) was 16 µM. It also gave a GI50 (T-47D breast) of 3.77 µM, a TGI (T-47D breast) of 32.5 µM and a GI50 (OVCAR-4 ovarian) of 5.23 µM. It also gave a TGI (OVCAR-4 ovarian) of 20.9 µM, a GI50 (NCI-H23 lung) of 0.728 µM and a TGI (NCI-H23 lung) of 14.2 µM. For the same compound, the GI50 (BT-549 breast) was 0.416 µM, the TGI (BT-549 breast) was 3.12 µM and the GI50 (LOX IMVI melanoma) was 0.265 µM. For the same compound, the TGI (LOX IMVI melanoma) was 13.7 µM, the GI50 (RPMI-8226 leukemia) was 0.36 µM and the TGI (RPMI-8226 leukemia) was 33.2 µM. For the same compound, the GI50 (SK-MEL-2 melanoma) was 0.954 µM, the TGI (SK-MEL-2 melanoma) was 16.4 µM and the GI50 (SK-OV-3 ovarian) was 3.54 µM. For the same compound, the TGI (SK-OV-3 ovarian) was 18.4 µM, the GI50 (OVCAR-5 ovarian) was 0.745 µM and the TGI (OVCAR-5 ovarian) was 14.6 µM. For the same compound, the GI50 (SF-539 CNS) was 0.246 µM, the TGI (SF-539 CNS) was 1.08 µM and the GI50 (MDA-MB-231 breast) was 0.906 µM. It also gave a TGI (MDA-MB-231 breast) of 12.3 µM, a GI50 (SF-268 CNS) of 1.2 µM and a TGI (SF-268 CNS) of 14.5 µM. It also gave a GI50 (A498 renal) of 15.6 µM, a TGI (A498 renal) of 30.2 µM and a GI50 (MOLT-4 leukemia) of 0.405 µM. The TGI (MOLT-4 leukemia) was 21 µM, the GI50 (786-0 renal) was 0.665 µM and the TGI (786-0 renal) was 14.4 µM. For the same compound, the GI50 (NCI/ADR-RES ovarian) was 0.231 µM, the TGI (NCI/ADR-RES ovarian) was 1.31 µM and the GI50 (U251 CNS) was 1.16 µM. It also gave a TGI (U251 CNS) of 15.6 µM, a GI50 (RXF 393 renal) of 0.455 µM and a TGI (RXF 393 renal) of 19.8 µM. For the same compound, the GI50 (HOP-92 NSCLC) was 0.989 µM, the TGI (HOP-92 NSCLC) was 13.3 µM and the GI50 (SNB-19 CNS) was 3.15 µM. The TGI (SNB-19 CNS) was 20 µM, the GI50 (SR leukemia) was 0.492 µM and the TGI (SR leukemia) was 36.9 µM. For the same compound, the GI50 (EKVX NSCLC) was 1.03 µM, the TGI (EKVX NSCLC) was 13.6 µM and the GI50 (MDA-MB-468 breast) was 0.346 µM. It also gave a TGI (MDA-MB-468 breast) of 3.88 µM, a GI50 (SW-620 colon) of 0.297 µM and a TGI (SW-620 colon) of 15.6 µM. It also gave a GI50 (SF-295 CNS) of 0.289 µM, a TGI (SF-295 CNS) of 13 µM and a GI50 (UACC-257 melanoma) of 7.66 µM. The TGI (UACC-257 melanoma) was 23.3 µM, the GI50 (HCC-2998 colon) was 0.755 µM and the TGI (HCC-2998 colon) was 11.6 µM. For the same compound, the GI50 (CAKI-1 renal) was 0.537 µM, the TGI (CAKI-1 renal) was 15.4 µM and the GI50 (NCI-H522 lung) was 0.208 µM. It also gave a TGI (NCI-H522 lung) of 1 µM, a GI50 (NCI-H460 lung) of 0.252 µM and a TGI (NCI-H460 lung) of 10.7 µM. For the same compound, the GI50 (HOP-62 NSCLC) was 0.524 µM, the TGI (HOP-62 NSCLC) was 17.6 µM and the GI50 (HCT-15 colon) was 0.328 µM. For the same compound, the TGI (HCT-15 colon) was 11.9 µM, the GI50 (KM12 colon) was 0.461 µM and the TGI (KM12 colon) was 13.5 µM. For the same compound, the GI50 (COLO 205 colon) was 0.43 µM, the TGI (COLO 205 colon) was 3.14 µM and the GI50 (ACHN renal) was 0.79 µM. The TGI (ACHN renal) was 14.4 µM, the GI50 (NCI-H226 lung) was 3.04 µM and the TGI (NCI-H226 lung) was 16.2 µM. It also gave a GI50 (SK-MEL-5 melanoma) of 0.295 µM, a TGI (SK-MEL-5 melanoma) of 1.67 µM and a GI50 (CCRF-CEM leukemia) of 0.227 µM. It also gave a TGI (CCRF-CEM leukemia) of 15.3 µM, a GI50 (HL-60(TB) leukemia) of 0.205 µM and a TGI (HL-60(TB) leukemia) of 0.852 µM. For the same compound, the GI50 (M14 melanoma) was 0.226 µM, the TGI (M14 melanoma) was 14.7 µM and the GI50 (K-562 leukemia) was 0.197 µM. For the same compound, the TGI (K-562 leukemia) was > 56.2 µM, the GI50 (OVCAR-8 ovarian) was 0.369 µM and the TGI (OVCAR-8 ovarian) was 5.93 µM. For the same compound, the GI50 (HCT-116 colon) was 0.166 µM, the TGI (HCT-116 colon) was 11.1 µM and the GI50 (UO-31 renal) was 1.01 µM. The TGI (UO-31 renal) was 15.2 µM, the GI50 (IGROV1 ovarian) was 1.25 µM and the TGI (IGROV1 ovarian) was 13 µM. For the same compound, the GI50 (A549 NSCLC) was 1.13 µM, the TGI (A549 NSCLC) was 14.7 µM and the GI50 (MDA-MB-435) was 0.162 µM. For the same compound, the TGI (MDA-MB-435) was 0.827 µM.
